Consider 88 molecules from a melting point compilation (Tetko et al.; mined from patent text by program, amines drawn as free bases though some values may be those of a salt).

As usually defined, the melting point is the temperature of the solid-liquid transition. The molecule `NC1=NC2(O)c3ccc(Cl)cc3CC2(F)S1` (stereo not drawn) registered a melting point of 159 °C.
The result for `CCOC(=O)c1nc(NC)sc1-c1nc2ccc(C)cn2c1C` reads 225 to 227 °C; that for `OCCn1cc(-c2cc3nccnc3[nH]2)c2ccccc21`, 272 to 273 °C.
For the molecule `Cc1ccnc(O)c1C#N`, the melting point is 230 to 232 °C.
Under `Clc1cc(Cl)n2nc(SCc3ccccc3)nc2n1` stands 97 to 100 °C; under `CON(C)C(=O)c1cc(-n2c(Cl)nc(C(F)(F)F)cc2=O)c(F)cc1Cl`, 183 °C; under `CN1CCCCC1CCc1ccccc1NC(=O)c1ccc(C(C)(C)C)cc1` (stereo not drawn), 101 to 120 °C.
In turn, `COc1ccc(C=Cc2cccc(C#N)n2)cc1` came in with a melting point of 121 to 122 °C.
Under `COc1cc(C)ccc1OCCCN1CCC(C(O)(c2ccc(F)cc2)c2ccc(F)cc2)CC1` stands 121 to 122 °C.
The molecule `Cc1ccc2c(c1)-n1ccc3c1=C(CCC=3)c1nccn1-2` had a melting point of 175 °C.
Turning to `CC(=O)c1c(C)oc2c(-n3c(=O)cc(C(F)(F)F)n(C)c3=O)c(F)cc(Cl)c12`, the melting point was 138 to 140 °C.
Under `N#CSc1ccc(N)c(N)c1` stands 108 to 110 °C; under `O=C(O)c1c(Br)nc(-c2ccccc2)n1Cc1cc2c(cc1Cl)OCO2`, 215 °C; under `COc1ccc(CC(=O)c2c(O)c3cccnc3n(-c3ccccc3)c2=O)c(OC)c1`, 200 to 202 °C.
`N#Cc1cnc2c(sc3ccccc32)c1Oc1ccc(Cl)cc1F` registered a melting point of 174 to 175 °C.
The molecule `CS(=O)(=O)c1ccc(-c2oc(C(=O)O)cc(=O)c2Oc2ccc(F)cc2F)cc1` showed a melting point of 245 °C.
Under `CCCCOc1ccc(NC(=O)c2cnc(C(=O)OC)c(OC)c2)cc1` stands 138 to 141 °C.
Under `CC1Sc2nccn2C1(C)C(O)C=Cc1ccco1` (stereo not drawn) stands 149 to 150 °C; under `CSc1nc(F)cc2nnc(SCc3ccccc3)n12`, 74 to 77 °C.
`CCCC(OC)c1ccc(Cl)c2nc3n(c12)CCCN3c1ccc(Cl)cc1Cl` (stereo not drawn): the melting point was in the range of 139 to 140 °C.
The result for `Cc1ccc(NC(=O)C(C)C)o1` reads 78 °C; that for `O=C(OCc1ccccc1)n1ccc2c(O)cccc21`, 118 to 120 °C; that for `C=CCSc1nsc(S)n1`, 107 to 108 °C.
Under `N#Cc1c(Cl)c(F)cc(C(=O)Cl)c1Cl` stands 73 to 75 °C; under `ClCCc1cc(-c2ccc(Cl)cc2)n(-c2ccc(OCc3ccc4ccccc4n3)cc2)n1`, 105 °C.
`COc1nc2ccccc2cc1NC(=O)N1CCN(c2cccc(C)c2C)CC1` came in with a melting point of 174 to 175 °C.
Under `CCN1CC(NC(=O)Nc2cc(Cl)cc(Cl)c2)CN1CC` stands 165 to 167 °C; under `O=c1c(Cl)c(S(=O)C2CCCCC2)cnn1-c1ccccc1` (stereo not drawn), 128 to 130 °C; under `COc1cccc2c1C1=C(CC2)NC(=O)CC1`, 190 °C.
Under `CC(C)(NC(=O)C1=C(C(=O)Nc2cc(OC3CCCC3)c(Cl)cc2F)CCCC1)c1ccc(Br)cc1` stands 214 to 216 °C; under `CC(C)COC(=O)Nc1ccc(C2=CCS(=O)CC2)c(F)c1` (stereo not drawn), 212 to 214 °C.
`O=C(Nc1ccc(S(=O)(=O)c2ccccc2)cc1)N[C@@H](Cc1ccc(NC(=O)c2c(Cl)cccc2Cl)cc1)C(=O)O`: the melting point is 222 °C.
Regarding `CC1C(=CC2C(C(=O)O)C2(C)C)C1(F)F` (stereo not drawn), the melting point was found to be 97.7 °C.
The result for `Nc1nc2cc(-c3ccc(C=C4SC(=O)NC4=O)cn3)cc(C34CC5CC(CC(C5)C3)C4)c2o1` reads > 360 °C; that for `CN1C(=O)[C@H](NC(=O)/C=C/c2cccc(Cl)c2)N=C(c2ccccc2)c2ccccc21`, 229 to 231 °C.
`O=C(C=Cc1cccc(S(=O)(=O)NCc2ccco2)c1)NO` came in with a melting point of 165 °C.
Under `COc1ccc2c(c1)CCC1=C2CCC2(CC(C)C)C(=O)CCC12` (stereo not drawn) stands 117 to 119 °C; under `O=C1NC(=NC2CCCCC2)C(c2ccc(Br)cc2)N1c1ccc2[nH]cnc2c1` (stereo not drawn), 205 °C.
On to `NC(=O)C=Cc1ccc(N)cc1`, for which the melting point is 200 °C.
Take `CC(C)(O)c1ccc(CNC(=O)c2cccnc2Oc2cccc(S(C)(=O)=O)c2)cc1`: the melting point was 51 to 53 °C.
Under `COc1ccc(NC(=O)c2ccc(F)c(F)c2)cc1NCc1cccs1` stands 187 to 189 °C; under `CCOC(Cc1ccc2oc(CN3c4ccccc4Sc4ccccc43)cc2c1)C(=O)O` (stereo not drawn), 120 to 121 °C; under `Oc1ccc(Nc2ccc3cc(O)ccc3c2)cc1`, 195 to 196 °C.
Under `O=[N+]([O-])c1cccc(C2=NOCCS2)c1` stands 114 to 115 °C; under `COc1ccc(C(=O)CC(C)(C)C(=O)O)cc1OC`, 114 to 116 °C.
Under `Oc1ccc2c(c1)Cc1cc(Br)ccc1-2` stands 183 to 184 °C; under `CCOC(=O)C(Br)C(=O)Nc1ccc(Cl)cc1` (stereo not drawn), 117 to 119 °C; under `Cc1ccc(CCCCOCCCCCCNCC(O)c2ccc3c(n2)COC(c2ccccc2)O3)cc1` (stereo not drawn), 74 °C.
Regarding `CCCCc1ccc(C(=O)Nc2ccc3cc(CN4CCCC4)cnc3c2C)cc1`, the melting point is 131 °C.
Under `O=C(O)CCCCCCC1=C(C=Cc2ccccc2)C(=O)CC1` stands 118 to 120 °C; under `CCOc1nc2ccccc2nc1C(=O)Nc1ccc(OCCCCN2CCc3cc(OC)c(OC)cc3C2)cc1`, 182 °C.
Under `COc1cc(-c2cc(O)n(C)n2)cc([N+](=O)[O-])c1OC` stands 200 to 202 °C; under `COc1cc(C(=O)N2CC(O)CC2C(N)=O)cc(OC)c1OC` (stereo not drawn), 172 °C.
Under `N#Cc1cc(C(F)(F)F)cc(Br)c1-c1nc(C(F)(F)C(F)(F)F)c(Br)c(=O)[nH]1` stands 156 °C; under `OCCc1nccn1CCCCc1ccc(OCc2coc(/C=C/c3ccc(F)cc3)n2)cc1`, 130 to 132 °C.
In the case of `Cc1c(C(=O)O)ccc2c1CCCO2`, the melting point is 207 to 208 °C.
The result for `C[C@@H]1Cc2cc3c(cc2C(c2ccc([N+](=O)[O-])c(Cl)c2)=NN1)OCO3` reads 165 to 170 °C; that for `C=C(C)C1=CC(C)(C)Oc2c(OCC)cc(Cc3cnc(N)nc3N)cc21`, 188 to 189 °C.
Under `O=C(NCCCc1ccncc1)N(CCC12CC3CC(CC(C3)C1)C2)Cc1ccccc1` stands 130 to 135 °C.
The molecule `Cc1c(CO)c2c(c(C)c1NC(=O)NC(C)(C)C)C(c1ccc(C(C)C)cc1)CO2` (single isomer, unassigned; (+)) displayed a melting point of 187 to 188 °C.
Turning to `COc1ccc(C2(O)c3c(C)c(NC(=O)CC(C)(C)C)c(C)c(C)c3OC2(C)C)cc1` (stereo not drawn), the melting point was 98 to 99 °C.
The result for `CNC(=O)c1ccc(F)c2c1CC(N(CCCc1c[nH]c3ccc(F)cc13)CC1CC1)CO2` (stereo not drawn) reads 120 °C.
Molecule `Cc1ccc(S(=O)(=O)N2CCCC(CC(C#N)(c3ccc(F)cc3)c3ccc(F)cc3)C2)cc1` (stereo not drawn) had a melting point of 142 to 143 °C.
The molecule `CC(C(=O)O)c1ccc2ocnc2c1` (stereo not drawn) returned a melting point of 126 to 128 °C.
For `O=C(O)CC1CSc2sccc2C1=O` (stereo not drawn), the melting point fell in the range of 124 to 127 °C.
The result for `O=c1ccc(C(F)(F)F)cn1-c1ccc(NCCCN2CCCCC2)cc1Cl` reads 112 to 115 °C; that for `O=C(NCCn1ccccc1=O)c1cccnc1`, 158 to 159 °C.
Under `CC(Oc1ccccc1[N+](=O)[O-])C(=O)NCCO[N+](=O)[O-]` (stereo not drawn) stands 65 to 67 °C; under `COc1ccc(CC(C(=O)O)S(C)(=O)=O)cc1C(=O)NCc1ccc(C(F)(F)F)cc1` (stereo not drawn), 158 to 159 °C.
The result for `OCc1ccc(OCCCCCCCCCCC2c3c(c4ccccc4c4ccccc34)-c3c2c2ccccc2c2ccccc32)cc1` reads 64 to 66 °C.
For `COc1ccnc(CCc2nc3cc(-c4ccc(S(=O)(=O)N5CCNC(=O)CC5)cc4)cnc3[nH]2)c1`, the melting point is 230 to 232 °C.
The result for `CC1(C)C2CCC1(C)C(C(=O)OC(CSc1ccccc1)(C(=O)Nc1ccc(C#N)c(C(F)(F)F)c1)C(F)(F)F)C2` (stereo not drawn) reads 140 to 143 °C; that for `ClCCOc1cccc2ncccc12`, 75 to 78 °C; that for `CCOC(=O)C1=CC(C(=O)c2cc(Br)ccc2O)=CN2CCc3c([nH]c4ccccc34)C12C(=O)OCC` (stereo not drawn), 215 °C.
The result for `CCOC(=O)COc1coc(C)cc1=O` reads 95 to 98 °C; that for `CNC(=O)[C@@H]1C[C@@H](OCc2ccccc2)CN1S(=O)(=O)c1ccc(Cl)c(CBr)c1Cl`, 62 to 64 °C.
Under `Cc1ccc(Sc2ccnc(Cl)n2)cc1` stands 80 to 81 °C.
For the molecule `CCOc1c(C(=O)NCC(O)CN(CC)CC)n(-c2ccccc2)c2ccccc12` (stereo not drawn), the melting point lay in the range of 146 to 148 °C.
Under `COc1ccc(Cc2nc(OCc3ccccc3)cc3cc(OC)c(OC)cc23)cc1OC` stands 114 to 116 °C; under `CC(=O)c1ccc(-c2ccc(OCc3nc4ccccc4s3)cc2)c(F)c1`, 170 to 172 °C.
Under `ClCc1cnoc1-c1cc(Cl)c(Cl)s1` stands 60 to 61 °C; under `CC[C@@]1(O)C(=O)OCc2c1cc1n(c2=O)Cc2c-1nc1ccc(C)c3c1c2C(NC(C)=O)CN3` (stereo partly drawn), 225 to 235 °C.
Under `CN1C(=O)N(c2ccc(C#N)c(C(F)(F)F)c2)C(=O)C1(CO)c1ccccc1` (stereo not drawn) stands 160 °C; under `CNC(=O)c1cccc(F)c1Nc1nc(Nc2ccc3c(c2)N(CCOC)C(=O)CCC3)ncc1Br`, 211 to 224 °C; under `CC(CC1CCCCC1)N(C)C(=O)COCC(=O)O` (stereo not drawn), 90 to 91 °C.
As for `CCc1cc2c(s1)-n1c(nnc1C1CCCCC1)CN=C2c1ccccc1Cl`, the melting point lay in the range of 116 to 119 °C.
Under `CCCCN(C(=O)c1ccc(Cl)cc1)[C@@H]1CN(CC)C[C@H]1O` (relative stereo) stands 96.5 to 98 °C.
On to `O=C1NC(=O)C(Cc2ccc(OCCNc3nc4ccccc4o3)cc2)S1` (stereo not drawn), for which the melting point is 202 to 203 °C.
